Like-named read-outs stand apart in the source and are kept apart here.
Legend:
[1] = Effect of inducing gastric ulcer; assay type: in vivo, male Fisher rat; conditions: rat, oral, fasted 24 hours, after six hours, read-out: UD50 (50% ulcer inducing dose)
Procedure: A male Fisher rat aged seven weeks was kept fasting for 24 hours and then each test compound suspended in a 5% aqueous solution of gum arabic was orally administered thereto.

[2] = test system: carrageenan edema at foot-sole; assay: Effect of suppressing carrageenan edema at foot-sole; assay type: in vivo, Male Fisher rats; conditions: 10 mg/kg, one hour before carrageenan; volume measured three hours after carrageenan injection; groups of five animals
Procedure: Male Fisher rats aged five weeks were classified into groups each having five animals. Each test compound was suspended in a 5% aqueous solution of gum arabic and administered to each rat in a dose of […] body weight. After one hour, a 1% carrageenan solution was injected into the sole of the right hind foot of the animal to thereby induce inflammation. Three hours after the carrageenan injection, the volume of the sole of each hind foot of the animal was measured to calculate the volume-gain of the foot-sole to which carrageenan was injected. The obtained data was compared with those of the control groups, thus determining the suppression ratio of the test compound. The same test compounds as used in Pharmacological Example 1 were used.

adjuvant inflammation = assay: Effect of lowering local surface temperature at inflammation (adjuvant inflammation, butter bacillus, hind foot); assay type: in vivo, male Fisher rat; conditions: Rattus norvegicus, 6 h, read-out: Dose (mg/kg) required for lowering local temperature at inflammatory site by at least 2° C.
Procedure: 0.05 ml of a suspension of butter bacillus in liquid paraffin (10 mg/ml) was injected into the sole of the right hind foot of a male Fisher rat aged six weeks to thereby induce adjuvant inflammation. After three to five days, the surface temperature of the inflammatory foot was constantly higher by 8° to 10° C. than that of a normal foot. The test compounds as described hereinbelow and control compounds (i.e. indomethacin and pyroxycam) were each suspended in a 5% aqueous solution of gum arabic and orally administered to the rat in a dose of 5 ml/kg body weight. The local surface temperature of the inflammatory site was determined after two, four and six hours according to the method of H. Shirota et al. (cf. J. Pharmacol. Methods, 12, 35-43 (1984)). The dose required for lowering the surface temperature by at least 2° C. below that prior to the administration was calculated by averaging data of two animals, thus determining the anti-inflammatory titer of each test compound.

mice = assay: Acute Toxicity Test, mice; assay type: in vivo; conditions: oral, male mice, after fasting 17 to 24 hours
Procedure: (§1) LD 50 of the compound B, falling within the scope of the invention, was investigated in respect to acute toxicity, using rats and mice.
(§2) *Values were calculated according to BehrensKarber method. The oral
(§3) administration was conducted after a fasting treatment for 17 to 24 hours

[3] = Acute Toxicity Test, mice; assay type: in vivo; conditions: mouse, in vivo
Procedure: as §1, §2, §3

[4] = Acute Toxicity Test, rats; conditions: rat, in vivo
Procedure: as §1, §2, §3

[5] = oral, suspended in 5% gum arabic, temperature after two, four and six hours, averaging data of two animals

COc1ccc2c(c1)c(CC(=O)O)c(C)n2C(=O)c1ccc(Cl)cc1 [Indomethacin, indomethacin, reference compound]
TD50 at 6 h ([1]; in vivo): 7.8 mg/kg
Suppression ratio [2]: 37.7
minimal effective dose (adjuvant inflammation; po): 0.3 mg/kg

CN1CCC(=Cc2cc(C(C)(C)C)c(O)c(C(C)(C)C)c2)C1=O [Compound A, N-methyl-3-(3,5-di-tert-butyl-4-hydroxybenzylidene)-2-pyrrolidone]
Suppression ratio [2]: 36.1
minimal effective dose (adjuvant inflammation; [5]): 1 mg/kg

CC(C)(C)c1cc(C=C2CCNC2=O)cc(C(C)(C)C)c1O [Compound C, 3-(3,5-di-tert-butyl-4-hydroxybenzylidene)-2-pyrrolidone]
TD50 at 6 h ([1]; stomach): 75.8 mg/kg
Suppression ratio [2]: 38.5
minimal effective dose (adjuvant inflammation; [5]): 0.3 mg/kg

CON1CCC(=Cc2cc(C(C)(C)C)c(O)c(C(C)(C)C)c2)C1=O [Compound B, N-methoxy-3-(3,5-di-tert-butyl-4-hydroxybenzylidene)-2-pyrrolidone]
LD50 (mice): 4000~2000
LD50 ([3]; ip, abdominal, female mice, confidence range 443.9~1549.3): 805 mg/kg
LD50 ([3]; ip, abdominal, male mice, confidence range 523~2270): 1070 mg/kg
LD50 ([3]; po, female mice, after fasting 17 to 24 hours): 6870 mg/kg
LD50 ([3]; sc, hypodermic, female mice): > 4000 mg/kg
LD50 ([3]; sc, hypodermic, male mice): > 4000 mg/kg
LD50 ([4]; ip, abdominal, female rats, calculated according to Behrens-Karber method (*)): 46.9 mg/kg
LD50 ([4]; ip, abdominal, male rats, calculated according to Behrens-Karber method (*)): 96.7 mg/kg
LD50 ([4]; po, female rats, after fasting 17 to 24 hours, calculated according to Behrens-Karber method (*)): 161 mg/kg
LD50 ([4]; po, male rats, after fasting 17 to 24 hours): 354 mg/kg
LD50 ([4]; sc, hypodermic, female rats, confidence range 124~476): 291 mg/kg
LD50 ([4]; sc, hypodermic, male rats, calculated according to Behrens-Karber method (*)): 806 mg/kg
TD50 at 6 h ([1]; in vivo): 473 mg/kg
Suppression ratio [2]: 36.4
minimal effective dose (adjuvant inflammation; po): 0.3 mg/kg

CN1C(C(=O)Nc2ccccn2)=C(O)c2ccccc2S1(=O)=O [Piroxicam, reference compound]
TD50 at 6 h ([1]; in vivo): 23.1 mg/kg
minimal effective dose (adjuvant inflammation; [5]): 0.3 mg/kg
